According to PubChem BioAssay (NCI):
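Step 1: Grow cells in 96-well plates. Step 2: Expose to compound for 48 hours at 5 concentrations. Step 3: Interpolate endpoints linearly; if unreached, use highest concentration. GI50 is the concentration that inhibits growth by half. TGI: concentration producing complete growth inhibition.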

What was measured:
Assay in all cases: NCI anticancer screen, dose series, 48 h
IGROV1 ovarian = system: IGROV1 ovarian
HS 578T breast = system: HS 578T breast
HCT-116 colon = system: HCT-116 colon
HCC-2998 colon = system: HCC-2998 colon
786-0 renal = system: 786-0 renal
MOLT-4 leukemia = system: MOLT-4 leukemia
CAKI-1 renal = system: CAKI-1 renal
TK-10 renal = system: TK-10 renal

Structure (SMILES)	GI50 (IGROV1 ovarian) [µM]	TGI (IGROV1 ovarian) [µM]	GI50 (HS 578T breast) [µM]	TGI (HS 578T breast) [µM]	GI50 (HCT-116 colon) [µM]	TGI (HCT-116 colon) [µM]	GI50 (HCC-2998 colon) [µM]	TGI (HCC-2998 colon) [µM]	GI50 (786-0 renal) [µM]	TGI (786-0 renal) [µM]	GI50 (MOLT-4 leukemia) [µM]	TGI (MOLT-4 leukemia) [µM]	GI50 (CAKI-1 renal) [µM]	TGI (CAKI-1 renal) [µM]	GI50 (TK-10 renal) [µM]	TGI (TK-10 renal) [µM]
COc1c2ccccc2c(O)c2c(=O)c(C(=O)O)cn(C)c12	> 100	> 100	> 100	> 100	> 100	> 100	> 100	> 100	> 100	> 100	> 100	> 100				
NC1=NC(c2ccccc2)N=C(Nc2ccccc2)N1 (configuration not stated)	39.4	> 100	68.5	> 100	> 100	> 100			> 100	> 100	> 100	> 100	> 100	> 100	> 100	> 100
Nc1nc2c(c3ncccc13)C(c1cccc(Cl)c1)Cc1ncccc1-2 (configuration not stated)	5.36	> 100	3.83	34.4	1.36	14.5	2.77	15.1	3.99	26.5	2.43	50.4	3.04	51.8	8.11	65.7
O=C(Oc1ccc([N+](=O)[O-])cc1)N1CCN(Cc2cccc(Oc3ccccc3)c2)CC1	> 100	> 100	> 100	> 100	44.9	> 100	> 100	> 100	> 100	> 100	38.9	> 100	> 73.6	> 100	> 75.9	> 100
CN(C)CCNC(=O)c1cccc2cc3ccccc3nc12	1.47	> 22	1.6	10.2	0.531	4.75	1.63	5.9	1.52	8.64	0.399	7.95	0.62	3.14	1.23	4.08
COc1ncc(-c2nc3c(n2C(C)C)[C@H](c2ccc(Cl)cc2)N(c2cc(Cl)cn(C)c2=O)C3=O)c(OC)n1	22.1	> 100	32.6	> 100	22	> 100	60.1	> 100	67.5	> 100	12.4	39.6	26.3	> 100	36.8	> 100
Nc1ccn([C@H]2C[C@@H](O)[C@@H](CO)S2)c(=O)n1	> 100	> 100	> 100	> 100	14.1	> 100	> 100	> 100	> 100	> 100	> 100	> 100	8.4	> 100	> 100	> 100
CCCCn1c2c(c3ccccc3c1=O)C(=O)c1ccccc1-2		> 100		> 100		> 100				> 100				> 100		> 100
COc1ccc2cc(C(=O)/C=C/c3cccc(Cl)c3Cl)ccc2c1	16.6	> 100	50.5	> 100	1	19.6			6.08	> 41.5	27.5	> 100	5.6	80.6	18.6	> 86.3
COc1cccc(/C=C/C(=O)c2ccc(Cl)cc2Cl)c1OC				39.8	2.31	5.85	14.5	27.7	10.3	21.9	3.04	12.4	12.6	25.1	13.5	27
C=C(CN1CCN(c2cccc(C(F)(F)F)c2)CC1)c1ccc(C(=O)Nc2ccccc2N)cc1	14.2	> 50	0.491	> 36.3	1.14	11.7			1.1	8.96	0.13	1.29	0.625	> 17.6	0.807	5.31
Cc1ccc(-c2ccc(Nc3c4ccccc4nc4ccccc34)cc2)cn1		18.4		58.3		10.3		44.7		3.42		3.59		9.02		
COc1cc2c3c(n(CCCN4CCN(C)CC4)c(=O)c2cc1OC)-c1cc2c(cc1C3=O)OCO2	7.05	80.6	13.9	73	1.49	11.5			12.9	25.5		0.0353	10.3	23.7	17.1	31.9
C/C=C(\C)C(=O)O[C@@H]1C(O)[C@H]2OC(COC(=O)CCC(=O)CCCCCC[C@H](CCCCC)O[C@@H]3OC(C)[C@H](OC(C)=O)C(O)[C@H]3O2)[C@H]1OC(=O)/C=C/c1ccccc1 (some centres not stated)	< 0.0163	17.9	< 0.01	23.3	< 0.01	> 33.6	1.79	> 100	0.028	7.61	3.28	> 100			0.0235	5.98
COc1cc2c3c(n(CCN)c(=O)c2cc1OC)-c1cc2c(cc1C3=O)OCO2	1.53	4.74	1.85	4.51	0.0521				0.14	0.502	0.084	> 100	< 0.0145	0.786	1.79	3.63
O=C(O)c1cc2ccccc2c(N=Nc2c([N+](=O)[O-])cc([N+](=O)[O-])cc2S(=O)(=O)O)c1O		> 100		> 100		> 100				> 100		> 100		> 100		> 100
N#C/C(=C\c1ccc(Br)cc1)n1nnc2cccc(F)c21			2.5	8.14			1.56	3.13	1.48	2.93			2.05	4.99	1.91	3.55
